Results on four substances are retold here after article PMC5663926, “In vivo near-infrared imaging of ErbB2 expressing breast tumors with dual-axes confocal endomicroscopy using a targeted peptide” (Scientific Reports, 2017).

For data set [1], the system named is ErbB2 on SKBR3 human breast cancer cells. The data set is described as follows: siRNA knockdown of ErbB2 in SKBR3 cells, binding of labeled ligand. Type of data set: cell-based. As to the method:
We performed siRNA knockdown of ErbB2 in SKBR3 human breast cancer cells to validate specific binding of KSP* to ErbB2.
(§1) ~10^4 human breast cancer cells were seeded on 1 mm thick cover glass, and grown to ~80% confluence in 12 well plates. The cells were gently washed with cold PBS and blocked with 2% BSA before incubation with peptides. 1 μM of IRDye800CW-labeled peptides mixed with 2% BSA was added to each well and incubated at 4 °C for 1 hour. After incubation for […], the cells were washed with PBS 3X, fixed in ice cold 4% PFA for 10 min, and washed with PBS 1X. The cells were then embedded on microscope slides with 5 μL of ProLong Gold reagent containing DAPI (Invitrogen). SKBR3 cells were cultured in 6-well plates at 30–40% confluence in culture media supplemented with 10% fetal bovine serum without antibiotics. The cells were transfected with siRNA with a final concentration of […] using oligofectamine (Thermo Scientific).
We examined ErbB2 knockdown in SKBR3 cells using ON-TARGETplus human siRNA (#L-003126–00–0005), ON-TARGETplus Non-targeting pool (#D-001810–10–05), and DharmaFECT transfection reagents (Thermo Scientific) per manufacturer instructions. We transfected SKBR3 cells with either siErbB2 (targeting siRNA) or siCL (non-targeting siRNA) for control at a final concentration of […] using oligofectamine (Thermo Scientific).

Data set [2] addresses ErbB2 extracellular domain 3. The conditions noted are these: cited from earlier work.
In the next data set the test system is ErbB2 on SKBR3 cells. In words: Binding co-localization with anti-ErbB2 antibody on cells. In kind it is cell-based, human. The conditions noted are these: KSP*-Cy5.5 and anti-ErbB2-AF488, average of 3 independent measurements. As to the method:
[…] The cells were washed and fixed with 4% PFA for 5 min, and then incubated with primary anti-ErbB2 and secondary AF488-labeled antibody.
For imaging, we used an inverted confocal microscope (Olympus FV1200) with a 63X water immersion objective and λex = 748 nm to excite IRDye800CW, λex = 405 nm for DAPI, and λex = 488 nm for Alexa Fluor 488. For antibody staining, the cells were pre-fixed with cold methanol for 10 min at −20 °C and blocked with 2% BSA for 30 min at room temperature (RT). Cells were incubated with a 1:450 dilution of anti-ErbB2 antibody (clone 111.6, Thermo Scientific) overnight at 4 °C. The cells were then washed with PBS 3X, and secondary goat […] antibody labeled with Alexa-Fluor 488 (AF488) was added to the cells for 1 hour at RT. The cells were washed further with PBS and mounted onto cover glass. Fluorescence intensities were measured from 3 randomly positioned boxes with dimensions of 20 × 20 μm^2, and were quantified using custom Matlab (Mathworks) software.

For the next data set, the system named is ErbB2. The data set is described as follows: Competition with unlabeled peptide for binding of labeled KSP* to cells. In kind it is cell-based, human. The conditions noted are these: unlabeled peptide 0, 100, 250, 500, 1000 μM, 30 min at 4 °C; for effect of unlabeled peptide on binding of KSP*-IR800: BT474 cells as per Results text, then 0.5 μM labeled peptide; for effect of unlabeled peptide on mean fluorescence intensity of KSP*-Cy5.5: SKBR3 cells, one-way ANOVA (Fig. 2 legend). As to the method:
We performed competition by adding either unlabeled KSP* or PPS* peptide to block binding of KSP*-IR800 to BT474 cells. […] We also observed good co-localization of binding between KSP*-Cy5.5 (red) and AlexaFluor488-labeled anti-ErbB2 antibody (green) with Pearson’s correlation coefficient ρ = 0.70, Fig. 2P–S.
Specific binding of KSP*-IR800 to SKBR3 cells was validated using competition with unlabeled KSP* peptide. SKBR3 cells were grown to ~70% confluence on coverslips in triplicate. Unlabeled KSP* at concentrations of 0, 100, 250, 500, and 1000 μM was incubated with the cells for 30 min at 4 °C. The cells were washed with PBS 3X, and further incubated with 0.5 μM of KSP*-IR800 for another 30 min at 4 °C. The cells were washed with PBS 3X and fixed with 4% PFA for 10 min. The cells were washed with PBS and then mounted with ProLong Gold reagent containing DAPI (Invitrogen). Confocal fluorescence images were collected and intensities from 6 independent images at each concentration were quantified using custom Matlab (Mathworks) software.

A short description of data set [3]: Absorption and fluorescence emission spectra. In kind it is physicochemical. The source says:
We synthesized the ErbB2 and control peptides using standard Fmoc mediated solid-phase chemical synthesis and labeled with either Cy5.5 or IRDye800 fluorophores via standard bio-conjugation techniques. We used IRDye800CW-malemide (LiCor Biosciences) to label the peptide via a GGGSC linker at the C-terminus. The coupling yield was about 20–30% in aqueous solution without use of catalysis. IRDye800CW was used because of its high quantum yield, photostability, and lack of toxicity. The peptide absorption spectrum was measured using a UV-vis spectrophotometer in the 300–900 nm range (NanoDrop 2000, Thermo Scientific). Fluorescence emission from a 5 μM peptide solution diluted in PBS was collected with a fiber coupled spectrophotometer (Ocean Optics) using a diode pumped solid state laser (Technica Laser Inc) with excitation at λex = 780 nm. The spectra were plotted using Origin 9.5 software (OriginLab Corp).

In data set [4] the test system is ErbB2 in human breast specimens (IDC, DCIS, normal). In words: Immunofluorescence of human breast specimens ex vivo. From the text:
We evaluated peptide binding to sections of human breast specimens to assess potential for clinical translation. […] Representative histology (H&E) is shown, Fig. 6D. We also observed strong co-localization of binding (arrow) between KSP*-IR800 peptide (red) and AF488-labeled anti-ErbB2 antibody (green) to ErbB2 + IDC specimens with Pearson’s correlation coefficient of ρ = 0.53, Fig. 6E,F. We quantified the fluorescence intensities, Fig. 6G. […] Representative histology (H&E) for DCIS is shown, Fig. 6M. […] Representative histology (H&E) for normal is shown, Fig. 6O.
(§2) Resected human xenograft breast tumors and normal breast tissues from n = 8 mice were formalin-fixed, paraffin embedded, and cut in 5 μm thick sections. IDC and normal human breast tissues were collected and prepared with the same protocol. The specimens were cut in 5 μm sections, and deparaffinization, rehydration and antigen unmasking was performed, as described previously. Blocking was performed with DAKO protein blocking agent (X0909, DAKO) for 1 hour at RT. Sections were then incubated with 0.5 μM of either peptide in 2% BSA for 10 min at RT. The sections were washed with PBS 3X and mounted with Prolong Gold reagent containing DAPI (Invitrogen).
Formalin-fixed, paraffin-embedded (FFPE) human breast specimens known to express ErbB2 (n = 4 patients) were obtained from the archived tissue bank in the Department of Pathology at the University of Michigan. 5 μm sections were cut and rehydrated to water. Slides were counterstained with Harris Hematoxylin for 5 sec, dehydrated, and cover-slipped. Heat induced epitope retrieval was performed with FLEX TRS High pH Retrieval buffer (DAKO, 9.01) for 20 min. After peroxidase blocking, the antibody Her2/neu rabbit monoclonal (Cell Marque Corporation, SP3 cat#237R-16) was applied at a dilution of 1:150 at RT for 20 min. The EnVision + detection System HRP anti-rabbit (DAKO, #K4002) was used for detection. DAB chromogen was then applied for 10 min. Sections of human breast specimens were mounted onto glass slides (Superfrost Plus, Fischer Scientific). The tissues were deparaffinized, and antigen retrieval was performed, as discussed above. Histology and IHC were performed to evaluate for ErbB2 expression.
Human breast specimens were embedded in paraffin and antigen unmasking was performed as described above. Blocking was performed with 2% BSA solution in PBS at RT for 1 hour. We used 1:250 dilution of monoclonal mouse anti-ErbB2 antibody (clone 111.6, Thermo Scientific). The sections were incubated at RT for 1 hour with primary antibody and then washed in PBS for 5 min. […] Fluorescence intensities were measured from 3 randomly positioned boxes with dimensions of 20 × 20 μm^2.

Data set [5] has as its system ErbB2 in BT474 and MDA-MB-231 xenograft tumor and normal breast sections. In words: Immunofluorescence of human xenograft breast tumor sections. On the set-up: species or system mouse. The conditions noted are these: 0.5 μM peptide, 10 min at RT. As to the method: Representative histology (H&E) for the MDA-MB-231 tumor is shown, Fig. S7I. […] Representative histology (H&E) for normal is shown, Fig. S7M.
as §2
On the technique in general: Xenograft models place foreign cells or tissue in a host animal.

For data set [6], the system named is ErbB2 on BT474 (ErbB2+) and MDA-MB-231 (ErbB2−) human breast cancer cells. In words: Confocal microscopy of NIR-labeled peptide binding to breast cancer cells. Type of data set: cell-based. The conditions noted are these: 1 μM peptide, 2% BSA, 4 °C, 1 hour. As to the method: as §1
For imaging, we used an inverted confocal microscope (Olympus FV1200) with a 63X water immersion objective and λex = 748 nm to excite IRDye800CW, λex = 405 nm for DAPI, and λex = 488 nm for Alexa Fluor 488. For antibody staining, the cells were pre-fixed with cold methanol for 10 min at −20 °C and blocked with 2% BSA for 30 min at room temperature (RT). […] Fluorescence intensities were measured from 3 randomly positioned boxes with dimensions of 20 × 20 μm^2, and were quantified using custom Matlab (Mathworks) software.

For the substance KSPNPRF [KSP*-Cy5.5], in data set [1] (SKBR3, average of 3 independent measurements, ANOVA, difference of differences significant), the “fold greater signal, siCL control versus siErbB2 knockdown cells” value worked out at 4.42 fold. For the same substance, the “reduction in fluorescence intensities in ErbB2 knockdown cells” value in data set [1] (SKBR3 siErbB2 versus siCL, qualitative) is “significant reduction”. In data set [1] (control SKBR3 cells (siCL), qualitative), the “binding to cell surface” value is “strong binding”. Also, the Kd in data set [2] (peptide labeled with Cy5.5, read-out: affinity) was 20 nM. In data set [2] (peptide labeled with Cy5.5), the “binding kinetics (rate)” value is 0.14 min⁻¹. In addition, the “Pearson's correlation coefficient ρ for co-localization with anti-ErbB2-AF488” value in the data set on ErbB2 on SKBR3 cells is listed as 0.70.

Take KSPNPRF [KSP*]: in the data set with ErbB2, the “effect of unlabeled peptide on binding of KSP*-IR800” value was “decreases significantly in a concentration dependent manner” and the “effect of unlabeled peptide on mean fluorescence intensity of KSP*-Cy5.5” value is “decreases significantly in a concentration dependent manner”.

For the substance “PPSNFKR [PPS*, unlabeled scrambled control peptide]”, in the data set on ErbB2, the “effect of unlabeled peptide on binding of KSP*-IR800” value is recorded as “significantly less effective competition” and the “effect of unlabeled peptide on mean fluorescence intensity of KSP*-Cy5.5” value was “significantly less affected”.

Turning to PPSNFKR [PPS*-IR800], the “peak emission λem” value in data set [3] (5 μM peptide solution diluted in PBS, excitation 780 nm) worked out at 800 nm. In addition, the “maximum absorbance λex” value in data set [3] (UV-vis spectrophotometer, 300–900 nm range) was 780 nm. Besides, the “binding / signal on immunofluorescence” value is reported as “minimal signal” in data set [4] (ductal carcinoma in situ (DCIS), 0.5 μM peptide, 10 min at RT, qualitative); “minimal signal” in data set [4] (invasive ductal carcinoma (IDC), 0.5 μM peptide, 2% BSA, 10 min at RT, qualitative); “minimal signal” in data set [5] (BT474 xenograft tumor sections, 2% BSA, qualitative). Also, the “fold greater signal, IDC (ErbB2+) versus normal (ErbB2−) breast” value in data set [4] (n = 4 patients, ANOVA on log-transformed data, difference of differences not significant, P = 0.09) is recorded as 1.30 fold. Besides, the staining on immunofluorescence entry in data set [4] (normal human breast tissue, 0.5 μM peptide, 10 min at RT, qualitative) is “minimal staining”. Moreover, the “fluorescence intensity on immunofluorescence” value was “minimal” in data set [5] (MDA-MB-231 tumor sections, qualitative) and “minimal” in data set [5] (normal breast sections, qualitative). Further, the “fold increase, BT474 versus MDA-MB-231 tumors” value in data set [5] (xenograft tumor sections, ANOVA with terms for 6 groups on log-transformed data) was 1.8 fold. Also, in data set [6] (average of 3 independent measurements, ANOVA on log-transformed data, difference of differences significant), the “fold greater signal, BT474 versus MDA-MB-231 cells” value worked out at 1.04 fold. Further, in data set [6] (either cell (BT474 and MDA-MB-231), qualitative), the “signal to cell surface” value is “Minimal signal”.
